Experimental data from US10640497B2, “Microbiocidal oxadiazole derivatives” (SYNGENTA PARTICIPATIONS AG, priority 2015, dated 2020).

Experiments:
[1] = test system: Glomerella lagenarium (Colletotrichum lagenarium); assay: Fungicidal activity against Glomerella lagenarium (Colletotrichum lagenarium), liquid culture, cucumber, preventative (anthracnose); type: cell-based; conditions: Colletotrichum orbiculare, liquid culture (PDB), growth inhibition measured photometrically 3-4 days after application, compared to untreated control
Protocol: Mycelia fragments or conidia suspensions of a fungus, prepared either freshly from liquid cultures of the fungus or from cryogenic storage, are directly mixed into nutrient broth. DMSO solutions of the test compound (max. 10 mg/ml) is diluted with 0.025% Tween20 by a factor of 50 and 10 μl of this solution is pipetted into a microtiter plate (96-well format). The nutrient broth containing the fungal spores/mycelia fragments is then added to give an end concentration of the tested compound. The test plates are incubated in the dark at 24° C. and 96% relative humidity. The inhibition of fungal growth is determined photometrically after 2 to 7 days, depending on the pathosystem, and percent antifungal activity relative to the untreated check is calculated. Conidia of the fungus from cryogenic storage are directly mixed into nutrient broth (PDB potato dextrose broth). After placing a (DMSO) solution of test compound into a microtiter plate (96-well format), the nutrient broth containing the fungal spores is added. The test plates are incubated at 24° C. and the inhibition of growth is measured photometrically 3-4 days after application.

Phakopsora pachyrhizi = assay: Fungicidal activity against Phakopsora pachyrhizi, soybean, leaf disc preventative (Asian soybean rust); type: in vivo; conditions: foliar, 288 h, 12-14 days after application, compared to untreated control
Protocol: Leaf disks or leaf segments of various plant species are cut from plants grown in a greenhouse. The cut leaf disks or segments are placed in multiwell plates (24-well format) onto water agar. The leaf disks are sprayed with a test solution before (preventative) or after (curative) inoculation. Compounds to be tested are prepared as DMSO solutions (max. 10 mg/ml) which are diluted to the appropriate concentration with 0.025% Tween20 just before spraying. The inoculated leaf disks or segments are incubated under defined conditions (temperature, relative humidity, light, etc.) according to the respective test system. A single evaluation of disease level is carried out 3 to 14 days after inoculation, depending on the pathosystem. Percent disease control relative to the untreated check leaf disks or segments is then calculated. Soybean leaf disks are placed on water agar in multiwell plates (24-well format) and sprayed with the formulated test compound diluted in water. One day after application leaf discs are inoculated by spraying a spore suspension on the lower leaf surface. After an incubation period in a climate cabinet of 24-36 hours in darkness at 20° C. and 75% rh leaf disc are kept at 20° C. with 12 h light/day and 75% rh. The activity of a compound is assessed as percent disease control compared to untreated when an appropriate level of disease damage appears in untreated check leaf disks (12-14 days after application).

[2] = test system: Puccinia recondita f. sp. tritici; assay: Fungicidal activity against Puccinia recondita f. sp. tritici, wheat, leaf disc preventative (brown rust); type: in vivo; conditions: foliar, wheat leaf segments, preventative (inoculated 1 day after application), 7-9 days after application, compared to untreated control
Protocol: (§1) Leaf disks or leaf segments of various plant species are cut from plants grown in a greenhouse. The cut leaf disks or segments are placed in multiwell plates (24-well format) onto water agar. The leaf disks are sprayed with a test solution before (preventative) or after (curative) inoculation. Compounds to be tested are prepared as DMSO solutions (max. 10 mg/ml) which are diluted to the appropriate concentration with 0.025% Tween20 just before spraying. The inoculated leaf disks or segments are incubated under defined conditions (temperature, relative humidity, light, etc.) according to the respective test system. A single evaluation of disease level is carried out 3 to 14 days after inoculation, depending on the pathosystem. Percent disease control relative to the untreated check leaf disks or segments is then calculated. Wheat leaf segments cv. Kanzler are placed on agar in multiwell plates (24-well format) and sprayed with the formulated test compound diluted in water. The leaf segments are inoculated with a spore suspension of the fungus 1 day after application. The inoculated leaf segments are incubated at 19° C. and 75% rh under a light regime of 12 h light/12 h darkness in a climate cabinet and the activity of a compound is assessed as percent disease control compared to untreated when an appropriate level of disease damage appears in untreated check leaf segments (7-9 days after application).

[3] = test system: Puccinia recondita f. sp. tritici; assay: Fungicidal activity against Puccinia recondita f. sp. tritici, wheat, leaf disc curative (brown rust); type: in vivo; conditions: foliar, 144 h, wheat leaf segments, curative (applied 1 day after inoculation), 6-8 days after application, compared to untreated control
Protocol: as §1, with “plates (24-well format). The leaf” for “plates (24-well format) and sprayed with the formulated test compound diluted in water. The leaf”, “of the fungus. Plates are stored in darkness at 19° C. and 75% rh. The formulated test compound diluted in water is applied 1 day” for “of the fungus 1 day”, “day after inoculation. The leaf” for “day after application. The inoculated”, “inoculation. The leaf segments” for “application. The inoculated leaf segments”, “leaf segments (6-8 days after” for “leaf segments (7-9 days after”

Structure (SMILES)	inhibition of growth at 20 ppm [1]	pest or weed control at 200 ppm (Phakopsora pachyrhizi)	pest or weed control at 200 ppm [2]	pest or weed control at 200 ppm [3]
O=C1CCC2(CC2)N1Cc1ccc(-c2noc(C(F)(F)F)n2)cc1 [Compound A-27, 4-[[4-[5-(trifluoromethyl)-1,2,4-oxadiazol-3-yl]phenyl]methyl]-4-aza-spiro[2.4]heptan-5-one]	≥ 80%	≥ 80%	≥ 80%	≥ 80%
CC1CCC(=O)N1Cc1ccc(-c2noc(C(F)(F)F)n2)cc1 (centres unmarked) [Compound A-13, 5-methyl-1-[[4-[5-(trifluoromethyl)-1,2,4-oxadiazol-3-yl]phenyl]methyl]pyrrolidin-2-one]	≥ 80%	≥ 80%	≥ 80%	≥ 80%
O=C1CCCCN1Cc1ccc(-c2noc(C(F)(F)F)n2)cc1F [Compound A-29, 1-[[2-fluoro-4-[5-(trifluoromethyl)-1,2,4-oxadiazol-3-yl]phenyl]methyl]piperidin-2-one]	≥ 80%	≥ 80%	≥ 80%	≥ 80%
O=C1CC(C(F)(F)F)N1Cc1ccc(-c2noc(C(F)(F)F)n2)cc1 (centres unmarked) [Compound A-20, 4-(trifluoromethyl)-1-[[4-[5-(trifluoromethyl)-1,2,4-oxadiazol-3-yl]phenyl]methyl]azetidin-2-one]	≥ 80%	≥ 80%	≥ 80%	≥ 80%
O=C1OCCN1Cc1ccc(-c2noc(C(F)(F)F)n2)cc1 [Compound A-45, 3-[[4-[5-(trifluoromethyl)-1,2,4-oxadiazol-3-yl]phenyl]methyl]oxazolidin-2-one]	≥ 80%	–	≥ 80%	≥ 80%
CN1CCCN(Cc2ccc(-c3noc(C(F)(F)F)n3)cc2)S1(=O)=O [Compound B-3, 2-methyl-6-[[4-[5-(trifluoromethyl)-1,2,4-oxadiazol-3-yl]phenyl]methyl]-1,2,6-thiadiazinane 1,1-dioxide]	≥ 80%	–	≥ 80%	≥ 80%
CC1(C)CCCN(Cc2ccc(-c3noc(C(F)(F)F)n3)nc2)C1=O [Compound A-52, 3,3-dimethyl-1-[[6-[5-(trifluoromethyl)-1,2,4-oxadiazol-3-yl]-3-pyridyl]methyl]piperidin-2-one]	≥ 80%	–	–	–
COCC(=O)N1CCN(Cc2ccc(-c3noc(C(F)(F)F)n3)cc2)C(=O)C1 [Compound A-31, 4-(2-methoxyacetyl)-1-[[4-[5-(trifluoromethyl)-1,2,4-oxadiazol-3-yl]phenyl]methyl]piperazin-2-one]	≥ 80%	–	≥ 80%	≥ 80%
O=C1CCCCN1Cc1ccc(-c2noc(C(F)(F)F)n2)c(F)c1 [Compound A-44, 1-[[3-fluoro-4-[5-(trifluoromethyl)-1,2,4-oxadiazol-3-yl]phenyl]methyl]piperidin-2-one]	≥ 80%	–	≥ 80%	≥ 80%
O=C1CCCN1Cc1ccc(-c2noc(C(F)(F)F)n2)c(F)c1 [Compound A-63, 1-[[3-fluoro-4-[5-(trifluoromethyl)-1,2,4-oxadiazol-3-yl]phenyl]methyl]pyrrolidin-2-one]	≥ 80%	–	≥ 80%	≥ 80%
CN(C)S(=O)(=O)N1CC(=O)N(Cc2ccc(-c3noc(C(F)(F)F)n3)cc2)C(=O)C1 [Compound A-60, N,N-dimethyl-3,5-dioxo-4-[[4-[5-(trifluoromethyl)-1,2,4-oxadiazol-3-yl]phenyl]methyl]piperazine-1-sulfonamide]	–	≥ 80%	≥ 80%	–
O=S1(=O)CCCN1Cc1ccc(-c2noc(C(F)(F)F)n2)cc1Cl [Compound B-2, 2-[[2-chloro-4-[5-(trifluoromethyl)-1,2,4-oxadiazol-3-yl]phenyl]methyl]-1,2-thiazolidine 1,1-dioxide]	≥ 80%	–	≥ 80%	–
CN1CCCN(Cc2ccc(-c3noc(C(F)(F)F)n3)cc2Cl)S1(=O)=O [Compound B-4, 2-[[2-chloro-4-[5-(trifluoromethyl)-1,2,4-oxadiazol-3-yl]phenyl]methyl]-6-methyl-1,2,6-thiadiazinane 1,1-dioxide]	≥ 80%	–	–	–
O=C1CCCN1Cc1ccc(-c2noc(C(F)(F)F)n2)cn1 [Compound A-28, 1-[[5-[5-(trifluoromethyl)-1,2,4-oxadiazol-3-yl]-2-pyridyl]methyl]pyrrolidin-2-one]	≥ 80%	–	≥ 80%	≥ 80%
O=C1CNCCN1Cc1ccc(-c2noc(C(F)(F)F)n2)cc1 [Compound A-36, 1-[[4-[5-(trifluoromethyl)-1,2,4-oxadiazol-3-yl]phenyl]methyl]piperazin-4-ium-2-one; chloride]	–	–	≥ 80%	–
O=C1CNCC(=O)N1Cc1ccc(-c2noc(C(F)(F)F)n2)cc1 [Compound A-61, 1-[[4-[5-(trifluoromethyl)-1,2,4-oxadiazol-3-yl]phenyl]methyl]piperazin-4-ium-2,6-dione; chloride]	≥ 80%	–	–	–
O=C1CCCCN1Cc1ccc(-c2noc(C(F)(F)F)n2)cc1 [Compound A-2, 1-[[4-[5-(trifluoromethyl)-1,2,4-oxadiazol-3-yl]phenyl]methyl]piperidin-2-one]	–	≥ 80%	≥ 80%	≥ 80%
CC1(C)CON(Cc2ccc(-c3noc(C(F)(F)F)n3)c(F)c2)C1=O [Compound A-64, 2-[[3-fluoro-4-[5-(trifluoromethyl)-1,2,4-oxadiazol-3-yl]phenyl]methyl]-4,4-dimethyl-isoxazolidin-3-one]	≥ 80%	–	≥ 80%	–
CS(=O)(=O)N1CC(=O)N(Cc2ccc(-c3noc(C(F)(F)F)n3)cc2)C(=O)C1 [Compound A-59, 4-methylsulfonyl-1-[[4-[5-(trifluoromethyl)-1,2,4-oxadiazol-3-yl]phenyl]methyl]piperazine-2,6-dione]	≥ 80%	≥ 80%	≥ 80%	–
O=C1COCCN1Cc1ccc(-c2noc(C(F)(F)F)n2)cc1 [Compound A-3, 4-[[4-[5-(trifluoromethyl)-1,2,4-oxadiazol-3-yl]phenyl]methyl]morpholin-3-one]	–	≥ 80%	≥ 80%	≥ 80%
